# Assay: Partition of compound A and compound B between aqueous layer and toluene layer in the presence of various acids
# Details: 40° C., 1 hour
# Experimental: Thus-obtained mixed solvent was separated into aqueous layer and toluene layer, and then the concentrations of compound A and B in each layer were measured. Partition coefficients Ka or Kb are calculated according to the following equation. Ka=(Concentration of the compound A in aqueous layer)/(Concentration of the compound A in toluene layer) Kb=(Concentration of the compound B in aqueous layer)/(Concentration of the compound B in toluene layer)
smiles,measurement,setting,value
"CN(C)CCC[C@](O)(c1ccc(F)cc1)c1ccc(C#N)cc1CO [compound A, (S)-4-[4-dimethylamino-1-(4′-fluorophenyl)-1-hydroxybutyl]-3-hydroxymethylbenzonitrile]",Partition coefficient Ka,3-Phenylpropionic acid,5.67
same,Partition coefficient Ka,4-Biphenylcarboxylic acid,0.87
same,Partition coefficient Ka,Benzoic acid,18.4
same,Partition coefficient Ka,Caproic acid,5.04
same,Partition coefficient Ka,Cyclohexanecarboxylic acid,3.89
same,Partition coefficient Ka,Isobutyric acid,39.2
same,Partition coefficient Ka,Isophthalic acid,7.43
same,Partition coefficient Ka,Isovaleric acid,24.4
same,Partition coefficient Ka,Maleic acid,31.1
same,Partition coefficient Ka,Malonic acid,38.5
same,Partition coefficient Ka,Oxalic acid,1092
same,Partition coefficient Ka,Phthalic acid,20.8
same,Partition coefficient Ka,Pivalic acid,9.03
same,Partition coefficient Ka,Salicylic acid,13.0
same,Partition coefficient Ka,Succinic acid,24.1
same,Partition coefficient Ka,Terephthalic acid,16.8
same,Partition coefficient Ka,acid: None,0.17
same,Partition coefficient Ka,m-Chlorobenzoic acid,4.98
same,Partition coefficient Ka,m-Methoxybenzoic acid,9.23
same,Partition coefficient Ka,m-Nitrobenzoic acid,19.5
same,Partition coefficient Ka,m-Toluic acid,6.00
same,Partition coefficient Ka,o-Chlorobenzoic acid,22.8
same,Partition coefficient Ka,o-Methoxybenzoic acid,27.1
same,Partition coefficient Ka,o-Nitrobenzoic acid,30.7
same,Partition coefficient Ka,o-Toluic acid,9.11
same,Partition coefficient Ka,p-Chlorobenzoic acid,7.01
same,Partition coefficient Ka,p-Ethylbenzoic acid,2.28
same,Partition coefficient Ka,p-Fluorobenzoic acid,14.4
same,Partition coefficient Ka,p-Hydroxybenzoic acid,70.8
same,Partition coefficient Ka,p-Methoxybenzoic acid,12.3
same,Partition coefficient Ka,p-Toluenesulfonic acid,164
same,Partition coefficient Ka,p-Toluic acid,5.97

# Source: patent US8067640B2, “Method for the separation of intermediates which may be used for the preparation of escitalopram” (H. Lundbeck A/S, priority 2002, dated 2011)
